From US12636270B2, “Levothyroxine liquid formulations” (Fresenius Kabi USA, LLC, priority 2016, dated 2026)
Like-named read-outs stand apart in the source and are kept apart here.

Conditions: 20 mcg/mL, tromethamine 10 mg/mL, 5.4 mg/mL sodium chloride in water
Method: Separate samples containing 20 mcg/mL levothyroxine sodium, 10 mg/mL tromethamine, 5.4 mg/mL sodium chloride, and sodium iodide at a concentration of 280 mcg/mL, 140 mcg/mL, or 6 mcg/mL in water were adjusted to various pH levels. 5 mL of each sample was filled into 10 cc flint molded vials, and the vials were stoppered with 20 mm stoppers under nitrogen.
The samples also were stored at temperatures of 25° C. or 40° C. for 2M or 4M prior to analysis by HPLC.
The HPLC conditions were as follows: • Column: Phenomenex Kinetex 2.6 μm C18, 4.6×150 mm HPLC column • Mobile Phase A: 0.05 M Sulfamic Acid, pH 2.0 • Mobile Phase B: Acetonitrile • Diluent: 10% Mobile Phase A in Methanol: Acetonitrile: Mobile Phase A (1000 mL: 300 mL: 700 mL) • Column temperature: 27° C. • Flow rate: 1.2 mL/min • Injection volume: 50 μL • Autosampler temperature: 25° C. • Detection: UV at 225 nm • Separation mode: Gradient Gradient Program: […]

[1] = 25° C., 2 M, NaI 6 mcg/mL, pH 10.5
[2] = 25° C., 2 M, NaI 140 mcg/mL, pH 9.5
[3] = 25° C., 2 M, NaI 140 mcg/mL, pH 10
[4] = 25° C., 2 M, NaI 140 mcg/mL, pH 10.5
[5] = 25° C., 2 M, NaI 280 mcg/mL, pH 9.5
[6] = 25° C., 2 M, NaI 280 mcg/mL, pH 10
[7] = 25° C., 2 M, NaI 280 mcg/mL, pH 10.5
[8] = 25° C., 4 M, NaI 6 mcg/mL, pH 10.5
[9] = 25° C., 4 M, NaI 140 mcg/mL, pH 9.5
[10] = 25° C., 4 M, NaI 140 mcg/mL, pH 10
[11] = 25° C., 4 M, NaI 140 mcg/mL, pH 10.5
[12] = 25° C., 4 M, NaI 280 mcg/mL, pH 9.5
[13] = 25° C., 4 M, NaI 280 mcg/mL, pH 10
[14] = 25° C., 4 M, NaI 280 mcg/mL, pH 10.5
[15] = 40° C., 2 M, NaI 6 mcg/mL, pH 10.5
[16] = 40° C., 2 M, NaI 140 mcg/mL, pH 9.5
[17] = 40° C., 2 M, NaI 140 mcg/mL, pH 10
[18] = 40° C., 2 M, NaI 140 mcg/mL, pH 10.5
[19] = 40° C., 2 M, NaI 280 mcg/mL, pH 9.5
[20] = 40° C., 2 M, NaI 280 mcg/mL, pH 10
[21] = 40° C., 2 M, NaI 280 mcg/mL, pH 10.5
[22] = 40° C., 4 M, NaI 6 mcg/mL, pH 10.5
[23] = 40° C., 4 M, NaI 140 mcg/mL, pH 9.5
[24] = 40° C., 4 M, NaI 140 mcg/mL, pH 10
[25] = 40° C., 4 M, NaI 140 mcg/mL, pH 10.5
[26] = 40° C., 4 M, NaI 280 mcg/mL, pH 9.5
[27] = 40° C., 4 M, NaI 280 mcg/mL, pH 10
[28] = 40° C., 4 M, NaI 280 mcg/mL, pH 10.5

Compound: N[C@@H](Cc1cc(I)c(Oc2cc(I)c(O)c(I)c2)c(I)c1)C(=O)[O-].[Na+] [Levothyroxine Na, 4-(4-hydroxy-3,5-diiodophenoxy)-3,5-diiodo-L-phenylalanine sodium]
- % AOII [1]: 0.46%
- % total impurities [1]: 1.85%
- % AOII [2]: 0.09%
- % Liothyronine [2]: 0.29%
- % total impurities [2]: 0.76%
- % AOII [3]: 0.10%
- % total impurities [3]: 0.77%
- % AOII [4]: 0.12%
- % Liothyronine [4]: 0.24%
- % total impurities [4]: 0.88%
- % AOII [5]: 0.11%
- % total impurities [5]: 0.81%
- % AOII [6]: 0.12%
- % Liothyronine [6]: 0.24%
- % total impurities [6]: 0.8%
- % AOII [7]: 0.11%
- % Liothyronine [7]: 0.23%
- % total impurities [7]: 0.85%
- % AOII [8]: 1.21%
- % total impurities [8]: 2.81%
- % AOII [9]: 0.18%
- % Liothyronine [9]: 0.35%
- % total impurities [9]: 1.00%
- % AOII [10]: 0.17%
- % total impurities [10]: 0.93%
- % AOII [11]: 0.17%
- % total impurities [11]: 0.94%
- % AOII [12]: 2.14%
- % Liothyronine [12]: 0.35%
- % total impurities [12]: 3.26%
- % AOII [13]: 0.17%
- % total impurities [13]: 0.93%
- % AOII [14]: 0.11%
- % total impurities [14]: 1.04%
- % AOII [15]: 0.91%
- % Liothyronine [15]: 0.43%
- % total impurities [15]: 2.5%
- % AOII [16]: 0.14%
- % Liothyronine [16]: 0.88%
- % total impurities [16]: 1.42%
- % AOII [17]: 0.14%
- % Liothyronine [17]: 0.55%
- % total impurities [17]: 1.18%
- % AOII [18]: 0.15%
- % Liothyronine [18]: 0.41%
- % total impurities [18]: 1.09%
- % AOII [19]: 0.13%
- % Liothyronine [19]: 0.9%
- % total impurities [19]: 1.56%
- % AOII [20]: 0.13%
- % Liothyronine [20]: 0.55%
- % total impurities [20]: 1.2%
- % AOII [21]: 0.17%
- % Liothyronine [21]: 0.39%
- % total impurities [21]: 1.07%
- % AOII [22]: 1.45%
- % Liothyronine [22]: 0.6%
- % total impurities [22]: 3.51%
- % AOII [23]: 0.72%
- % Liothyronine [23]: 1.3%
- % total impurities [23]: 2.84%
- % AOII [24]: 0.92%
- % Liothyronine [24]: 0.86%
- % total impurities [24]: 2.73%
- % AOII [25]: 0.69%
- % Liothyronine [25]: 0.59%
- % total impurities [25]: 2.14%
- % AOII [26]: 0.52%
- % Liothyronine [26]: 1.23%
- % total impurities [26]: 2.76%
- % AOII [27]: 1.38%
- % Liothyronine [27]: 0.84%
- % total impurities [27]: 3.23%
- % AOII [28]: 1.07%
- % Liothyronine [28]: 0.58%
- % total impurities [28]: 2.72%
